Assay results published in patent publication US20220340908A1, “METHODS FOR DEPLETION OF DELETERIOUS MITOCHONDRIAL GENOMES” (University of Massachusetts, priority 2019, published 2022).
Residues, ends and D or L forms follow the SMILES beside them. *: point of attachment. Cbz = O=C(OCc1ccccc1)*

What was measured:
KSS cybrid cells = experiment: KSS ΔmtDNA quantification by qPCR in KSS heteroplasmic cybrid cells; type: cell-based, human; settings: for KSS ΔmtDNA percentage: 4 weeks, from ˜50%
Experimental: For human patient fibroblast cell lines, wild-type and ΔKSS primers were used to detect wild-type mtDNA or ΔKSS mtDNA. Primers that amplify a sequence within the B2M ([…]) gene were used as an internal control for normalization. Absolute quantification was also performed to determine the percentage or ratio of KSS ΔmtDNA relative to total mtDNA (KSS ΔmtDNA and wild-type mtDNA) as previously described (11). Primers that specifically amplify wild-type or ΔmtDNA are listed in Table A. Standard curves for each qPCR primer set were generated using purified plasmids individually containing approximately 1 kb of the mtDNA fragments specific for each primer set. A Student's t-test was employed to determine the level of statistical significance.
(§1) The KSS cell line was a gift from Carlos Moraes (29, 30). The CoxI […] cell line was a gift from Giovanni Manfredi (28). Cells were cultured in DMEM (4 mM L-glutamine, 4.5 g/L glucose; Gibco, Thermo Fisher Scientific) plus 10% FBS with 1% pen-strep. Total cellular mtDNA was prepared as described (40). Cells were incubated continuously in the described concentration of CDDO for the indicated number of days. The cells were sub-cultured prior to confluence every 48 hours.
Cells were grown on 6-well plates and siRNAs were transfected with Lipofectamine RNAiMAX (Thermo Fisher Scientific) following the manufacturer's instructions. Human LONP1 RNAi was used in knockdown experiment (Dharmacon L-003979-00-0005) (e.g., a pool comprising GGAAAUCGGCCUACAAGAU (SEQ ID NO:1), GCGCAUGUAUGACGUGACA (SEQ ID NO:2), CGAGAGUACUUCCGCUUCA (SEQ ID NO:3), and GAAGAGACCAAUAUUCCUA (SEQ ID NO:4)).
ATF5 shRNA knockdown lentiviral constructs were generated using psp-108 vector (Addgene), and viruses were produced by co-transfection along with plasmids pMD2.G (Addgene) and psPAX2 (Addgene) into HEK293T cells. All viral titers were predetermined, and same number of viral particles was used for experimental and control samples. KSS cells were infected with lentiviruses, selected with puromycin for 5-7 days, and re-plated for proliferation. ATFS knockdown targeting sequences are: shRNA-1, 5′-[…]-3′ (SEQ ID NO:5); shRNA-2, 5′-[…]-3′ (SEQ ID NO:6); shRNA-3, 5′-[…]-3′ (SEQ ID NO:7); see horizondiscovery.com/en/products/gene-modulation/knockdown-reagents/shrna/PIFs/TRC-Lentiviral-shRNA?nodeid=entrezgene-22809#specifications.

LONP1 protease = target: T1, LONP1 protease (Homo sapiens, UniProt P36776); settings: cited from earlier work
T1 sequence (P36776 68-959): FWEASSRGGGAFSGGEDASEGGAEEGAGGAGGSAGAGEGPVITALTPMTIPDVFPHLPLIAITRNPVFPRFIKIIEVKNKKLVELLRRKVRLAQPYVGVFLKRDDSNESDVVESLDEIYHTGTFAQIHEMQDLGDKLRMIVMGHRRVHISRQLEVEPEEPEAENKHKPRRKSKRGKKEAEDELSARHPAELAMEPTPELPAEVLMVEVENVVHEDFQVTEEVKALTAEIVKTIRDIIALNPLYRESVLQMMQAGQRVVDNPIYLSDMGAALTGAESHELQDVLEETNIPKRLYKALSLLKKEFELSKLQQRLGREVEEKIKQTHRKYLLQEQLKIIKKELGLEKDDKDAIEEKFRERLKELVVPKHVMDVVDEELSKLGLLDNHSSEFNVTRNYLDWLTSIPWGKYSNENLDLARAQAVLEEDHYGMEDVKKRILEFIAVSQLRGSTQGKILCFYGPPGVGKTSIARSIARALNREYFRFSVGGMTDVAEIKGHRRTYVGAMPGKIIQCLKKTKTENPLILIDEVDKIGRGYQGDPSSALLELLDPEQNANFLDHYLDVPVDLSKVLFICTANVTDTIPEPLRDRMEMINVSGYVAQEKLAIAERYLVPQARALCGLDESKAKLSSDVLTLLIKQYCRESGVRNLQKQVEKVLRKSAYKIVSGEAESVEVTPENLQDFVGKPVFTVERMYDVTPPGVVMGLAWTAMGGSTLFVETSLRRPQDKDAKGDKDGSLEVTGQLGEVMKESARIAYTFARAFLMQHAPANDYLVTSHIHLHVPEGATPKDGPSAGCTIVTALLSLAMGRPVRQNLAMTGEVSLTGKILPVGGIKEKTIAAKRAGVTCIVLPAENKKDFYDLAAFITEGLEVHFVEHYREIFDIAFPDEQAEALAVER

CoxI G6930A cybrid cells = experiment: Percentage of CoxI G6930A mtDNA by deep sequencing in cybrid cells; type: cell-based, human; settings: for CoxI G6930A mtDNA percentage: 3 weeks, from 86%; for CoxI G6930A mtDNA heteroplasmic ratio: 18.5 weeks continuous, from ˜90%
Experimental: Library construction for deep sequencing was modified from our previous report (7). Following CDDO treatment, cells were harvested at different time points and genomic DNA extracted. Briefly, regions flanking the CoxI […] site were PCR amplified using locus-specific primers bearing tails complementary to the Truseq adapters as described previously (38). 50-100 ng input genomic DNA (mtDNA included) was PCR amplified with Phusion High Fidelity DNA Polymerase (New England Biolabs):(98° C., 15 s; 67° C. 25 s; 72° C. 18 s)×30 cycles. 1 μl of each PCR reaction was amplified with barcoded primers to reconstitute the TruSeq adaptors using the Phusion High Fidelity DNA Polymerase (New England Biolabs): (98° C., 15 s; 61° C., 25 s; 72° C., 18 s)×9 cycles. Equal amounts of the products were pooled and gel purified. The purified library was deep sequenced using a paired-end 150 bp Illumina MiSeq run.
MiSeq data analysis for editing at target sites or off-target sites was performed using a suite of Unix-based-software tools. First, the quality of the paired-end sequencing reads (R1 and R2 fastq files) was assessed using FastQC (bioinformatics.babraham.ac.uk/projects/fastqc/). Raw paired-end reads were combined using paired end read merger (PEAR) (39) to generate single merged high-quality full-length reads. Reads were then filtered by quality (using Filter FASTQC (38)) to remove those with a mean PHRED quality score under 30 and a minimum per base score under 24. Each group of reads was then aligned to a corresponding reference sequence using BWA (version 0.7.5) and SAMtools (version 0.1.19). To determine background SNP or sequencing errors, all reads from each negative control replicate were combined and aligned, as described above. Background SNP types and frequencies were then cataloged in a text output format at each base using bam-readcount (github.com/genome/bam-readcount). For each drug treatment group, the average background SNP frequencies (based on SNP type, position and frequency) of the triplicate negative control group were subtracted to obtain the accurate SNP frequencies.
as §1

CoxI G6930A cells [1] = experiment: Cell viability (trypan blue), CoxI G6930A cells; type: cell-based, human; settings: 0.1 μM and 0.25 μM CDDO, 72 hours
Experimental: as §1
(§2) At the indicated time points, cells were stained with trypan blue (41) and quantified with an automated cell counter TC-20™ (Bio-Rad). The results are an average of three independent assays.

KSS ΔmtDNA cells = experiment: Cell viability (trypan blue), KSS cells; type: cell-based, human; settings: 0.1 μM and 0.25 μM CDDO, 72 hours
Experimental: as §1, §2

CoxI G6930A cells [2] = experiment: Respiration assay, oxygen consumption rate (Seahorse), CoxI G6930A cells; type: cell-based, human
Experimental: (§3) For mitochondrial respiration assays, oxygen consumption rate (OCR) was measured using a Seahorse Extracellular Flux Analyzer XFe96 (Seahorse Biosciences) as described (40). 14,000 cells were seeded per well and OCR was measured using the Cell MitoStress Kit (as described by the manufacture). 180 μl of XF-Media was added to each well and then the plates were subjected to analysis following sequential introduction of 1.5 μM oligomycin, 1.5 μM FCCP and 0.5 μM rotenone/antimycin as indicated. Data is normalized to total protein as determined by the BCA protein assay.

KSS heteroplasmic cells = experiment: Respiration assay, oxygen consumption rate (Seahorse), KSS cells; type: cell-based, human; settings: 0.1 μM or 0.25 μM, 4 weeks
Experimental: as §3

[3] = 20 mg for 56 consecutive days; cited from earlier work

Molecule: O=c1n(CCCN2CCN(c3cccc(Cl)c3)CC2)nc2ccccn12 [Trazadone]
- heteroplasmy (ΔmtDNA) in KSS cells (KSS cybrid cells; shRNA lentivirus or multiple concentrations of drug, FIG. 11): improved heteroplasmy

Molecule: Z-Leu-Leu-Leu-B(OH)2 [MG262]
- inhibition of LONP1 protease (LONP1 protease): potent inhibitors

Molecule: (-)-sesamin
- inhibition of LONP1 protease (LONP1 protease): inhibitors of LONP1 protease

Molecule: C=C1OC(=O)/C(=C\CCCCCCCCCCCCC)[C@@H]1O [Obtusilactone A]
- inhibition of LONP1 protease (LONP1 protease): inhibitors of LONP1 protease

Molecule: CC1(C)CC[C@]2(C(=O)O)CC[C@]3(C)[C@H](C(=O)C=C4[C@@]5(C)C=C(C#N)C(=O)C(C)(C)[C@@H]5CC[C@]43C)[C@@H]2C1 [CDDO, 2-cyano-3,12-dioxo-oleana-1,9(11)-dien-28-oic acid]
- KSS ΔmtDNA percentage (KSS cybrid cells; 0.1 μM): 19.6%
- KSS ΔmtDNA percentage (KSS cybrid cells; 0.25 μM): 21.2%
- CoxI G6930A mtDNA percentage (CoxI G6930A cybrid cells; 0.1 μM): 68%
- CoxI G6930A mtDNA heteroplasmic ratio (CoxI G6930A cybrid cells; 0.1 μM): ~47%
- CoxI G6930A mtDNA percentage (CoxI G6930A cybrid cells; 0.25 μM): 72%
- CoxI G6930A mtDNA heteroplasmic ratio (CoxI G6930A cybrid cells; 0.25 μM): 62%
- viability of CoxI G6930A cell line (CoxI G6930A cells [1]): neither concentration affected viability
- viability of KSS cell line (KSS ΔmtDNA cells): neither concentration affected viability
- improvement of basal oxygen consumption (CoxI G6930A cells [2]; 0.1 μM, 3 weeks): ~2 fold
- improvement of basal oxygen consumption (CoxI G6930A cells [2]; 18.5 weeks exposure): over 3 fold
- maximal respiratory capacity (CoxI G6930A cells [2]; CDDO time course, 0.1 μM or 0.25 μM): increased
- increase in basal oxygen consumption (KSS heteroplasmic cells): ~2 fold
- tolerability [3]: well tolerated

Molecule: CC(C)C[C@@H](C=O)NC(=O)[C@H](CC(C)C)NC(=O)[C@H](CC(C)C)NC(=O)OCc1ccccc1 [MG132, carbobenzoxy-Leu-Leu-leucinal] (Cbz-Leu-Leu-Leu-aldehyde)
- inhibition of LONP1 protease (LONP1 protease): potent inhibitors

B1: LONP1 siRNA: Dharmacon L-003979-00-0005, siRNA pool comprising SEQ ID NO:1-4 against human LONP1 (nucleic acid)
chain 1: GGAAAUCGGCCUACAAGAU
chain 2: GCGCAUGUAUGACGUGACA
chain 3: CGAGAGUACUUCCGCUUCA
chain 4: GAAGAGACCAAUAUUCCUA
modifications: siRNA pool, further chemistry not given here
- decrease of ΔmtDNAs (KSS cybrid cells; siRNA for 4 days, KSS cybrid line): 2.7 fold
- heteroplasmy ratio (% KSS mtDNA) (KSS cybrid cells; siRNA for 4 days, from 56.9%): 27.6%
